Measurements as given in US20260374754A1, “N-((ISOQUINOLIN-6-YL)METHYL)-1H-PYRAZOLE-4-CARBOXAMIDE DERIVATIVES AS PLASMA KALLIKREIN INHIBITORS FOR THE TREATMENT OF HEREDITARY ANGIODEMA” (Takeda Pharmaceutical Company Limited, priority 2022, published 2026).
Like-named read-outs stand apart in the source and are kept apart here.

Target: human activated kallikrein enzyme (Homo sapiens, UniProt P03952)
Test: Inhibition of human activated plasma kallikrein, fluorogenic PFR-AMC substrate, 500 pM enzyme format
Assay type: biochemical
Conditions: 300 μM PFR-AMC, 30 min preincubation, 10 min room temperature, pH 7.5
Procedure, shortened: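 500 pM activated kallikrein preincubated 30 min at room temperature with inhibitors in pH 7.5 Tris/EDTA/NaCl buffer with PEG-400 and Triton X-100. Reaction started with 300 μM PFR-AMC, run 10 min at room temperature; AMC fluorescence read at ex 380/em 460 nm.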

[1] = 500 pM activated kallikrein, read-out: Primary Dose Response Assay: Average EC50

human activated kallikrein enzyme, sequence (P03952 391-638 limits assumed): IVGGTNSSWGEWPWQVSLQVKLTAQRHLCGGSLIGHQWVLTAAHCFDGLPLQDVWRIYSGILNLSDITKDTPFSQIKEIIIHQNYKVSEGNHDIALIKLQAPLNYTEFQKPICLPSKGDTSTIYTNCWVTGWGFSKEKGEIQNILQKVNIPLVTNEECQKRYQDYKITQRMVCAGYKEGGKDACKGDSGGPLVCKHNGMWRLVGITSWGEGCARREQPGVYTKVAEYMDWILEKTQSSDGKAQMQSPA
human activated kallikrein enzyme, sequence (P03952 20-390 partner limits assumed): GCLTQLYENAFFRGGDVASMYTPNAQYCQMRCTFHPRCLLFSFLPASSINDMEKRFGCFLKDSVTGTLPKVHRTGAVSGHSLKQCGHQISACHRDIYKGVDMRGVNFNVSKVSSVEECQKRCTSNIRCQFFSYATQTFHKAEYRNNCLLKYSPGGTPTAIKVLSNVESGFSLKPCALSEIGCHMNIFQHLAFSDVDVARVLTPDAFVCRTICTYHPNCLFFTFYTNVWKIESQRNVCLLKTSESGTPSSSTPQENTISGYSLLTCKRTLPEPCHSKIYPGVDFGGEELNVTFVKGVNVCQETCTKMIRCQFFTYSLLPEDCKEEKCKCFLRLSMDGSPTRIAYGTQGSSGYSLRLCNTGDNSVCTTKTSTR

Cc1cc(CNc2cc(NCc3c(C)cc4c(N)nccc4c3C)ncn2)cc(C)c1CC(=O)N1CC2CC2C1 (stereo not shown) [Example 359, 2-(4-(((6-(((1-amino-5,7-dimethylisoquinolin-6-yl)methyl)amino)pyrimidin-4-yl)amino)methyl)-2,6-dimethylphenyl)-1-(3-azabicyclo[3.1.0]hexan-3-yl)ethan-1-one]
EC50 (Primary Dose Response Assay: Average EC50, 500 pM activated kallikrein): < 1 nM

COC(=O)C12CC1CN(C(=O)Cc1ccc(Cn3cc(C(=O)NCc4c(C)cc5c(N)nccc5c4C)cn3)cc1)C2 (stereo not shown) [Example 217, methyl 3-(2-(4-((4-(((1-amino-5,7-dimethylisoquinolin-6-yl)methyl)carbamoyl)-1H-pyrazol-1-yl)methyl)pheny1)acetyl)-3-azabicyclo[3.1.0]hexane-1-carboxylate]
EC50 [1]: 1 to 10 nM

Cc1cc(CNc2cc(NCc3c(C)cc4c(N)nccc4c3C)ncn2)cc(C)c1Cn1cccn1 [Example 367, N^4-(4-((1H-pyrazol-1-yl)methyl)-3,5-dimethylbenzyl)-N^6-((1-amino-5,7-dimethylisoquinolin-6-yl)methyl)pyrimidine-4,6-diamine]
EC50 [1]: < 1 nM

Cc1cc2c(N)nccc2c(C)c1CNC(=O)c1cnn(Cc2ccc(CC(=O)N(C)C3CC3)cc2)c1 [Example 224, N-((1-amino-5,7-dimethylisoquinolin-6-yl)methyl)-1-(4-(2-(cyclopropyl(methyl)amino)-2-oxoethyl)benzyl)-1H-pyrazole-4-carboxamide]
EC50 [1]: < 1 nM

Cc1cc2c(N)nccc2c(C)c1CNc1nccc(OCc2ccc(Cn3ccccc3=O)cc2)n1 [Example I-478, 1-(4-(((2-(((1-amino-5,7-dimethylisoquinolin-6-yl)methyl)amino)pyrimidin-4-yl)oxy)methyl)benzyl)pyridin-2(1H)-one]
EC50 [1]: 1 to 10 nM

Cc1cc2c(N)nccc2c(C)c1CNc1nccc2cn(Cc3ccc(Cn4cccn4)cc3)nc12 [Example 260, 6-(((2-(4-((1H-pyrazol-1-yl)methyl)benzyl)-2H-pyrazolo[3,4-c]pyridin-7-yl)amino)methyl)-5,7-dimethylisoquinolin-1-amine]
EC50 [1]: 1 to 10 nM

Cc1cc2c(N)nccc2c(C)c1CNc1cc(N(C)Cc2ccc(Cn3cccn3)cc2)cnn1 [Example 235, N5-(4-((1H-pyrazol-1-yl)methyl)benzyl)-N3-((1-amino-5,7-dimethylisoquinolin-6-yl)methyl)-N5-methylpyridazine-3,5-diamine]
EC50 [1]: < 1 nM

Cc1cnn(Cc2ccc(Cn3cc(C(=O)NCc4c(C)cc5c(N)nccc5c4C)c(C(F)(F)F)n3)cc2)c1 [Example 184, N-((1-amino-5,7-dimethylisoquinolin-6-yl)methyl)-1-(4-((4-methyl-1H-pyrazol-1-yl)methyl)benzyl)-3-(trifluoromethyl)-1H-pyrazole-4-carboxamide]
EC50 [1]: < 1 nM

Cc1ccc2nc(Cn3cc(C(=O)NCc4c(C)cc5c(NC(=O)OCC(C)C)nccc5c4C)cn3)cn2c1 [Example 5, isobutyl (5,7-dimethyl-6-((1-((6-methylimidazo[1,2-a]pyridin-2-yl)methyl)-1H-pyrazole-4-carboxamido)methyl)isoquinolin-1-yl)carbamate]
EC50 [1]: 10 to 100 nM

Cc1cc2c(N)nccc2c(C)c1CNc1cc(N(Cc2ccc(Cn3cccn3)cc2C(F)(F)F)N=O)ncn1 [Example 381, N-(4-((1H-pyrazol-1-yl)methyl)-2-(trifluoromethyl)benzyl)-N-(6-(((1-amino-5,7-dimethylisoquinolin-6-yl)methyl)amino)pyrimidin-4-yl)nitrous amide]
EC50 [1]: 10 to 100 nM

Cc1cc2c(N)nccc2c(C)c1CNC(=O)c1cnn(Cc2ccc3c(-n4cccn4)cccc3c2)c1 [Example 112, 1-((5-(1H-pyrazol-1-yl)naphthalen-2-yl)methyl)-N-((1-amino-5,7-dimethylisoquinolin-6-yl)methyl)-1H-pyrazole-4-carboxamide]
EC50 [1]: < 1 nM

Cc1cc2c(N)nccc2c(C)c1CNC(=O)c1cnn(Cc2ccc(CC(=O)N3CC4CC4C3)c(Cl)c2)c1 (stereo not shown) [Example I-474, 1-(4-(2-(3-azabicyclo[3.1.0]hexan-3-yl)-2-oxoethyl)-3-chlorobenzyl)-N-((1-amino-5,7-dimethylisoquinolin-6-yl)methyl)-1H-pyrazole-4-carboxamide]
EC50 [1]: < 1 nM

Cc1cnc2ccc(C(C)Oc3cnnc(NCc4c(C)cc5c(N)nccc5c4C)c3)cc2c1 (stereo not shown) [Example 419, 5,7-dimethyl-6-(((5-(1-(3-methylquinolin-6-yl)ethoxy)pyridazin-3-yl)amino)methyl)isoquinolin-1-amine]
EC50 [1]: < 1 nM

Cc1cc2c(N)nccc2c(C)c1CNc1cc(NCc2ccc(OCC(=O)N3CCCCC3)cc2)ncn1 [Example 346, 2-(4-(((6-(((1-amino-5,7-dimethylisoquinolin-6-yl)methyl)amino)pyrimidin-4-yl)amino)methyl)phenoxy)-1-(piperidin-1-yl)ethan-1-one]
EC50 [1]: 1 to 10 nM

Cc1c(CN)c(C2(C)CC2)cc2c(Nc3cc(OCc4cn5cc(C6CC6)ccc5n4)ncn3)nccc12 [Example 255, 6-(aminomethyl)-N-(6-((6-cyclopropylimidazo[1,2-a]pyridin-2-yl)methoxy)pyrimidin-4-yl)-5-methyl-7-(1-methylcyclopropyl)isoquinolin-1-amine]
EC50 [1]: 100 to 1000 nM

Cc1cc2c(N)nccc2c(C)c1CNC(=O)c1cnn(Cc2cc3cc(Cl)ccc3s2)c1 [Example 65, N-((1-amino-5,7-dimethylisoquinolin-6-yl)methyl)-1-((5-chlorobenzo[b]thiophen-2-yl)methyl)-1H-pyrazole-4-carboxamide]
EC50 [1]: < 1 nM

Cc1cc2c(N)nccc2c(C)c1CNc1cc(OCc2ccc3ncc(Cl)cc3c2)cnn1 [Example 407, 6-(((5-((3-chloroquinolin-6-yl)methoxy)pyridazin-3-yl)amino)methyl)-5,7-dimethylisoquinolin-1-amine]
EC50 [1]: < 1 nM

Cc1cc2c(N)nccc2c(C)c1CNC(=O)c1cnn(Cc2ccc3cnccc3c2)c1 [Example 74, N-((1-amino-5,7-dimethylisoquinolin-6-yl)methyl)-1-(isoquinolin-6-ylmethyl)-1H-pyrazole-4-carboxamide]
EC50 [1]: 1 to 10 nM

Cc1cc2c(N)nccc2c(C)c1CNc1cc(C(O)c2cn3cc(C4CC4)ccc3n2)ncn1 (stereo not shown) [Example 406, (6-(((1-amino-5,7-dimethylisoquinolin-6-yl)methyl)amino)pyrimidin-4-yl)(6-cyclopropylimidazo[1,2-a]pyridin-2-yl)methanol]
EC50 [1]: < 1 nM

Cc1cc2c(N)nccc2c(C)c1CNc1cnnc(OCc2ccc(Cn3cccn3)cc2)c1 [Example 530, 6-(((6-((4-((1H-pyrazol-1-yl)methyl)benzyl)oxy)pyridazin-4-yl)amino)methyl)-5,7-dimethylisoquinolin-1-amine]
EC50 [1]: 10 to 100 nM

Cc1cc2c(N)nccc2c(C)c1CNC(=O)c1cnn(Cc2ccc(CC(=O)NC34CC(C3)C4)cc2)c1 [Example 221, N-((1-amino-5,7-dimethylisoquinolin-6-yl)methyl)-1-(4-(2-(bicyclo[1.1.1]pentan-1-ylamino)-2-oxoethyl)benzyl)-1H-pyrazole-4-carboxamide]
EC50 [1]: 1 to 10 nM

Cc1cc2c(N)nccc2c(C)c1CNC(=O)c1cn(Cc2ccc(Cn3cccn3)cc2)nc1C(F)(F)F [Example 185, 1-(4-((1H-pyrazol-1-yl)methyl)benzyl)-N-((1-amino-5,7-dimethylisoquinolin-6-y1)methyl)-3-(trifluoromethyl)-1H-pyrazole-4-carboxamide]
EC50 [1]: < 1 nM
